Reference: US8822182B2, “Chimeric antigen-specific T cell-activating polypeptides” (Mayo Foundation for Medical Education and Research, priority 2001, dated 2014)
Like-named read-outs stand apart in the source and are kept apart here.

Columns and labels:
[1] = tested on: TAP-deficient RMA-S target cells; assay type: cell-based, mouse; settings: peptide epitope-activated CTL; for sensitization of targets for lysis by LCMV-specific CTL: FIG. 10C (right panel)
[2] = tested on: TAP deficient RMA-S targets; assay type: cell-based, mouse; settings: ConA-activated CTL, 10 μM overnight; for sensitization of targets for killing by OVA257-specific CTL: FIG. 9 left panel; for sensitization of targets for killing by 2C-specific CTL: FIG. 9 middle panel
[3] = tested on: TAP-expressing 221.A2 target cells; experiment: 51Cr release cytotoxicity assay, human CEA-specific CTL line, 221.A2 targets; assay type: cell-based; settings: TAP-competent targets, incubated overnight with peptide, FIG. 1A
[4] = tested on: TAP-deficient T2 target cells; experiment: 51Cr release cytotoxicity assay, human CEA-specific CTL line, T2 targets; assay type: cell-based; settings: for effect of brefeldin-A (BFA) on sensitization of T2 cells: BFA 1 μg/ml, CEA-specific CTL, E:T 20:1, FIG. 4; for ability to sensitize target cells for CTL lysis: TAP-deficient targets, incubated overnight with peptide, FIG. 1B; for sensitizing activity after pre-incubation with trypsin: trypsin at 37° C., E:T 20:1, FIG. 2B; for capacity to sensitize targets for CTL lysis: 10 μM overnight, E:T 20:1, FIG. 2C
[5] = tested on: TAP-deficient T2/K^b cells; experiment: Flow cytometry of surface H-2K^b/OVA257 complexes (25D1.16) with protease inhibitors, T2/K^b cells; assay type: cell-based, human; settings: antigen 10 μM overnight; for effect of furin inhibitor decRVKR-CMK on expression of surface H-2K^b/OVA257 complexes (decrease): decRVKR-CMK 60 μM, FIGS. 8D-8F; for effect of lactacystin on level of surface H-2K^b/OVA257 complexes (increase): lactacystin 10 μM, FIGS. 6C and 6D; for effect of pepstatin-A on amounts of surface peptide/MHC class I complexes (increase): pepstatin 100 μM, FIGS. 7C and 7D
Procedure: (§1) The effects of protease inhibitors on antigen processing and presentation were evaluated by analysis of 25D1.16 staining on different antigen-pulsed EL-4 or T2/K^b cells using flow cytometric analysis. In brief, EL-4 or T2/K^b cells were washed twice with serum-free AIM-V medium (Life Technologies, Rockville, Md.), pre-treated with protease inhibitors (10 μM lactacycstin, 100 μM pepstatin or 60 μM decRVKR-CMK) for 30 minutes and then pulsed with equimolar concentrations of different (as indicated) peptides at 37° C. overnight with the continuous presence of the corresponding protease inhibitors. The serum-free AIM-V medium was used in order to exclude the potential involvement of serum proteases during the peptide-pulsing process. After washing the cells twice with FACS buffer (PBS (phosphate buffered saline) supplemented with 2% FBS and 0.2% sodium azide), peptide-loaded APC were stained with 25D1.16 antibody followed by FITC anti-mIgG for flow analysis. Untreated EL-4 and T2/K^b cells were pulsed with peptides and stained as controls.
The data described above indicate that TA can be processed in various cellular compartments to produce small peptide epitopes that subsequently associate with MHC class I molecules and the resulting peptide-MHC class I complexes are then transported to the cell surface. Antigen processing could take place: (1) in the cytoplasm, via proteasomal degradation followed by TAP transport; (2) within the ER, where peptide trimming via an aminopeptidase could occur; (3) in the trans-Golgi, where processing of antigens through proteases such as furin can occur; and/or (4) in early endocytic compartments, where peptides that could either bind to recycling MHC class I molecules or leak into other compartments of the MHC class I pathway can be generated. Utilizing antibody 25D1.16, we studied the effects of various inhibitors of antigen processing in the formation of H-2K^b/OVA257 surface complexes by peptides OVA257-HIVtat and HIVtat-OVA257.

[6] = tested on: TAP-deficient cells (T2/K^b); experiment: Immunofluorescence and confocal microscopy of H-2K^b/OVA257 complexes, T2/K^b cells; assay type: cell-based, human
Procedure: (§2) T2/K^b or L-K^b cells were cultured overnight on poly-lysine treated glass coverslips. The culture medium was discarded, and the cells were gently washed with PBS. The cells were pre-incubated with serum-free AIM-V medium at 37° C. for 30 minutes and then incubated with peptide/TA solutions at the indicated concentrations for 12 hour at 37° C. After peptide loading, the cells were washed and fixed with 2% formaldehyde for 20 minutes at room temperature. For indirect immunofluorescence, fixed cell monolayers were permeabilized with 0.2% Triton X100 in PBS and incubated with PBS containing 5% goat serum to block non-specific protein binding sites. The cells were double-labeled with mouse monoclonal antibody 25D1.16 specific to OVA257/H-2K^b complex and rabbit polyclonal antibody TGN38 (TGN marker) or rabbit anti-calreticulin (ER marker), followed by 1 hour staining with FITC anti-mIgG and TR anti-rIgG as secondary antibodies. After washing, the coverslips were mounted for observation on glass slides using the Prolong Antifade Kit. The stained cells were examined and photographed with a Leica TCS-SL confocal laser-scanning microscope (Bensheim, Germany).
An antibody specific for trans-Golgi network (TGN38) was used to test whether H-2K^b/OVA257 complexes could also be detected in the trans-Golgi network of cells incubated with TA peptides. […] In these cells, antibody TGN38 stained brightly a structure corresponding to the trans-Golgi. […] These observations reinforce the findings that TA peptides need to penetrate cells in order to create MHC class I/peptide complexes. In addition, these complexes are observed in both the ER and trans-Golgi, even in TAP-deficient cells.

TAP-competent EL-4 cells = experiment: Flow cytometry of surface H-2K^b/OVA257 complexes (25D1.16) with protease inhibitors, EL-4 cells; assay type: cell-based, mouse; settings: antigen 10 μM overnight; for effect of furin inhibitor decRVKR-CMK on expression of surface H-2K^b/OVA257 complexes (decrease): decRVKR-CMK 60 μM, FIGS. 8A-8C; for effect of lactacystin on amount of surface H-2K^b/OVA257 complexes: lactacystin 10 μM, FIGS. 6A and 6B; for effect of pepstatin-A on amounts of surface peptide/MHC class I complexes (increase): pepstatin 100 μM, FIGS. 7A and 7B
Procedure: as §1

C57BL/6 mice = assay type: in vivo, mouse; settings: 50 μg in IFA; spleen and lymph node cells cultured with IL-2 for 7 days, FIG. 12
[7] = tested on: TAP-deficient T2 target cells; assay type: cell-based, human
[8] = tested on: TAP-competent cells expressing H-2K^b (L-K^b); experiment: Immunofluorescence and confocal microscopy of H-2K^b/OVA257 complexes, TAP-competent cells; assay type: cell-based, mouse
Procedure: as §2
Utilizing the monoclonal antibody 25D1.16 that specifically reacts with H-2K^b/OVA257 complexes and confocal microscopy, the formation and presence of this CTL epitope in permeabilized TAP-competent and TAP-deficient cells expressing H-2K^b was evaluated. […] These cells were also stained with an antibody specific for calreticulin which is localized within the ER.

[9] = tested on: Murine dendritic cells (DC); experiment: Persistence in dendritic cells: IFN-γ ELISA of OT-1 CTL cultured with pulsed DC; assay type: cell-based, mouse; settings: DC pulsed 10 μM 2 hours, washed, further 48 hours, CTL:DC 10:1 for 24 hours, FIG. 14
Procedure: Murine dendritic cells (DC) were prepared by culturing C57BL6 mouse (H-2^b) bone marrow […] in the presence of granulocyte macrophage colony stimulating factor (GM-CSF) and interleukin-4 (IL-4) by a method essentially the same as that described by Son et al. [(2002) J. Immunol. Meth. 262:145-157] except that non-adherent cells are removed from the cultures and discarded on day 2 of culture and no density gradient centrifugation step was used. Cells not adhering to the plastic tissue culture vessel at day 6 of culture were harvested and used as DC.
DC were pulsed with either the TA HIVtat-OVA257 (see Table 2) or the peptide epitope OVA257, each at a concentration of 10 μM, for 2 hours at 37° C. The cells were then washed free of the TA or peptide epitope and incubated for a further 48 hours. They were then cultured with cells of the OT-1 CTL clone (specific for H-2K^b/OVA257) at a CTL to DC ratio of 10:1 for 24 hours. Supernatants were then removed from the cultures and the relative amounts of IFN-γ in various dilutions of each supernatant were measured by ELISA (FIG. 14). […] These findings indicate that a peptide epitope persists in DC for a longer period of time when taken up by DC in the form of a TA than when taken up by DC in the form of the peptide epitope per se.

Sequence: IKAVYNFATCG [LCMV, reference compound]
- sensitization of targets for lysis by LCMV-specific CTL [1]: relatively high amount of the peptide epitope required to sensitize
- sensitization of targets for lysis by LCMV-specific CTL ([2]; FIG. 9 right panel): only the short minimal epitope was effective

Sequence: IMIGVLVGV (epitope) [CEA691, reference compound]
- ability to sensitize target cells for CTL lysis [3]: similar, if not identical, activities
- effect of brefeldin-A (BFA) on sensitization of T2 cells [4]: did not block
- ability to sensitize target cells for CTL lysis [4]: similar, if not identical, activities
- effect of competitor peptide HBc18-27 on sensitization of target cells for CTL lysis ([4]; antigen 1 μM, 30 minutes, E:T 20:1, FIG. 2A): efficient at inhibiting the sensitization of target cells for CTL lysis by peptide CEA691
- sensitizing activity after pre-incubation with trypsin ([4]; antigen 1 μM): did not modify this peptide's sensitizing activity

Sequence: SIINFEKLAAARKKRRQRRR [OVA257-HIVtat]
- effect of furin inhibitor decRVKR-CMK on expression of surface H-2K^b/OVA257 complexes (decrease) [5]: about 10 fold
- effect of lactacystin on level of surface H-2K^b/OVA257 complexes (increase) [5]: about 3 fold
- effect of pepstatin-A on amounts of surface peptide/MHC class I complexes (increase) [5]: 3-5 fold
- amount of intracellular H-2K^b/OVA257 complexes ([6]; 25D1.16 staining): High amounts of intracellular H-2K^b/OVA257 complexes
- localization of H-2K^b/OVA257 complexes to the trans-Golgi ([6]; 25D1.16 superimposed with TGN38 staining): majority of the H-2K^b/OVA257 complexes localized within the trans-Golgi
- effect of furin inhibitor decRVKR-CMK on expression of surface H-2K^b/OVA257 complexes (decrease) (TAP-competent EL-4 cells): about 10 fold
- effect of lactacystin on amount of surface H-2K^b/OVA257 complexes (TAP-competent EL-4 cells): did not have an effect
- effect of pepstatin-A on amounts of surface peptide/MHC class I complexes (increase) (TAP-competent EL-4 cells): 3-5 fold

Sequence: RKKRRQRRRAAASVYDEFFVWLVRVVLPYLGWLVFVRVVSGPSNTPPEI [TAG]
- peptide epitope-specific cytotoxic activity of effector cells from immunized mice (E1A, P1A, TRP-2 pulsed versus unpulsed RMA-S targets) (C57BL/6 mice): no significant cytotoxic activity

Sequence: IMIGVLVGVKKK [CEA691-KKK]
- capacity to sensitize targets for CTL lysis [4]: none of peptides CEA691-KKK, CEA691-RRR or CEA691-RKK were able to sensitize

Sequence: IMIGVLVGVRKK [CEA691-RKK]
- capacity to sensitize targets for CTL lysis [4]: none of peptides CEA691-KKK, CEA691-RRR or CEA691-RKK were able to sensitize

Sequence: IMIGVLVGVRRR [CEA691-RRR]
- capacity to sensitize targets for CTL lysis [4]: none of peptides CEA691-KKK, CEA691-RRR or CEA691-RKK were able to sensitize

Sequence: RKKRRQRRRAAAIMIGVLVGV [HIVtat-CEA691]
- effect of brefeldin-A (BFA) on sensitization of T2 cells [4]: effective in blocking

Sequence: RKKRRQRRRAAASVYDEFFVWLKVKRLPYLGWLVFKVKRSGPSNTPPEI [TA5]
- peptide epitope-specific cytotoxic activity of effector cells from immunized mice (E1A, P1A, TRP-2 pulsed versus unpulsed RMA-S targets) (C57BL/6 mice): significant peptide epitope-specific cytotoxic activity was detected

Sequence: IKAVYNFATCGVRVVSIYRYYGLVRVVSIINFEKLAAARKKRRQRRR [TA3-C]
- effectiveness in sensitizing RMA-S targets relative to TA3-A (less effective) ([1]; E:T 10:1, FIG. 10): at least 100 fold
- sensitization of targets for lysis by CTL specific for all three peptide epitopes (OVA257, 2C, LCMV) ([1]; E:T 10:1, FIG. 10): also sensitized the RMA-S targets for lysis
- sensitization of targets for killing by OVA257-specific CTL [2]: much less effective
- sensitization of targets for killing by 2C-specific CTL [2]: much less effective

Sequence: RKKRRQRRRIKAVYNFATCGRVKRSIINFEKLRVKRSIYRYYGL [TA3-D]
- sensitization of targets for lysis by LCMV-specific CTL [1]: less effective
- sensitization of targets for lysis by OVA257-specific CTL ([1]; FIG. 10 left panel): as effective as the others
- sensitization of targets for lysis by 2C-specific CTL ([1]; FIG. 10 middle panel): as effective as the others

Sequence: SIINFEKLRVKRIKAVYNFATCGRVKRSIYRYYGLAAARKKRRQRRR [TA3-B]
- sensitization of targets for killing by OVA257-specific CTL [2]: could effectively kill targets sensitized
- sensitization of targets for killing by 2C-specific CTL [2]: could effectively kill targets sensitized

Sequence: IMDQVPSFV [gp100209, reference compound]
- effect of brefeldin-A (BFA) on sensitization of T2 cells [7]: did not block

Sequence: IMIGVLVGVAAARKKRRQRRR [CEA691-HIVtat]
- ability to sensitize target cells for CTL lysis [3]: similar, if not identical, activities
- ability to sensitize target cells for CTL lysis [4]: similar, if not identical, activities
- sensitizing activity after pre-incubation with trypsin ([4]; antigen 1 μM): lost most of its activity

Sequence: RKKRRQRRRAAASIINFEKL [HIVtat-OVA257]
- presence of H-2K^b/OVA257 complexes in permeabilized cells ([8]; 25D1.16 staining): abundant
- H-2K^b/OVA257 complexes within the ER ([8]; 25D1.16 superimposed with calreticulin staining): abundant H-2K^b/OVA257 complexes were present within the ER
- effect of furin inhibitor decRVKR-CMK on expression of surface H-2K^b/OVA257 complexes (decrease) [5]: no effect was observed
- effect of lactacystin on level of surface H-2K^b/OVA257 complexes (increase) [5]: did not have an appreciable effect
- effect of pepstatin-A on amounts of surface peptide/MHC class I complexes (increase) [5]: did not have an appreciable effect
- IFN-γ produced by OT-1 CTL cultured with pulsed DC [9]: a high level of IFN-γ was produced
- effect of furin inhibitor decRVKR-CMK on expression of surface H-2K^b/OVA257 complexes (decrease) (TAP-competent EL-4 cells): no effect was observed
- effect of lactacystin on amount of surface H-2K^b/OVA257 complexes (TAP-competent EL-4 cells): did not have an effect
- effect of pepstatin-A on amounts of surface peptide/MHC class I complexes (increase) (TAP-competent EL-4 cells): did not have an appreciable effect
